Laboratory results: patent publication US20100317604A1, “FORSYTHIASIDE INJECTION PREPARATION AND PREPARATIVE METHOD THEREOF” (Shanghai Youseen New Medicine Exploition Co., Ltd, priority 2006, published 2010)

Assay: Choice of the pH value (HPLC peak area of Forsythiaside)
Type: physicochemical
Conditions: for Peak Area: HPLC peak area of Forsythiaside in water
Source text: Taking appropriate amount of Forsythiaside, adding water to it for dissolution. Adjusting the pH value to 3.0, 3.5, 4.0, 4.5, 5.0, 5.5, 6.0 separately, then determining the peak area value of Forsythiaside at different pH value by HPLC to investigate the influence on the content of Forsythiaside caused by different pH value.

Peak Area (pH Value 3.0): 1410.0
Peak Area (pH Value 3.5): 1499.0
Peak Area (pH Value 4.0): 1519.8
Peak Area (pH Value 4.5): 1523.1
Peak Area (pH Value 5.0): 1494.5
Peak Area (pH Value 5.5): 1480.6
Peak Area (pH Value 6.0): 1423.5
content of Forsythiaside at different pH value (pH value 3.0-6.0): not sufficiently varied
content of Forsythiaside at different pH value (pH value 4.5): highest content
Substance: Forsythiaside
